Test results as given in PubChem BioAssay (NCI).
Where “and” joins values, the source holds several entries; their conditions need not be identical. Equal entries are not always repeated.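 Each compound was tested at five concentrations against cells in 96-well plates for 48 hours. GI50 is the concentration that inhibits growth by half. Definition used: TGI = concentration required for complete inhibition of growth.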

How the values were obtained:
Test in all cases: growth of human tumour cells (NCI), 48 h
A549 NSCLC = tested on: A549 NSCLC
HOP-92 NSCLC = tested on: HOP-92 NSCLC
HS 578T breast = tested on: HS 578T breast
M14 melanoma = tested on: M14 melanoma
MOLT-4 leukemia = tested on: MOLT-4 leukemia
OVCAR-5 ovarian = tested on: OVCAR-5 ovarian
SF-295 CNS = tested on: SF-295 CNS
SK-OV-3 ovarian = tested on: SK-OV-3 ovarian
SN12C renal = tested on: SN12C renal
SNB-75 CNS = tested on: SNB-75 CNS

Row | SMILES | GI50 (A549 NSCLC) [µM] | TGI (A549 NSCLC) [µM] | GI50 (HOP-92 NSCLC) [µM] | TGI (HOP-92 NSCLC) [µM] | GI50 (HS 578T breast) [µM] | TGI (HS 578T breast) [µM] | GI50 (M14 melanoma) [µM] | TGI (M14 melanoma) [µM] | GI50 (MOLT-4 leukemia) | TGI (MOLT-4 leukemia) [µM] | GI50 (OVCAR-5 ovarian) [µM] | TGI (OVCAR-5 ovarian) [µM] | GI50 (SF-295 CNS) [µM] | TGI (SF-295 CNS) [µM] | GI50 (SK-OV-3 ovarian) [µM] | TGI (SK-OV-3 ovarian) [µM] | GI50 (SN12C renal) [µM] | TGI (SN12C renal) [µM] | GI50 (SNB-75 CNS) [µM] | TGI (SNB-75 CNS) [µM]
1 | CNCCCn1c2c(c3ccc([N+](=O)[O-])cc3c1=O)C(=O)c1cc(OC)cnc1-2 | 0.0696 | 0.359 | 0.237 | 2.44 | 1.17 | 5.27 | 0.0394 | 0.358 | 0.0306 µM | 0.293 | 0.135 | 0.882 | 0.0319 | 0.193 | 0.0568 | 0.351 | 0.0461 | 1.2 | 0.134 | 2.46
2 | Cc1ccc(-c2nc(C#N)c(S(=O)(=O)n3nc(C)cc3N)o2)cc1 | 19.6 | 39.8 | 2.27 | 5.71 | 21.3 | 58.1 | 3.35 | 14.4 | 1.97 µM | 4.77 | 12.4 | 27.5 | 15.8 | 30.5 | 27.5 | 71.1 | 3.65 | 13.9 | 13.7 | 27.1
3 | O=C(O)C1OC1(c1cccc(Cl)c1)c1ccccc1Cl (stereo unspecified) | – | > 100 | – | 94.4 | – | 52.4 | – | 42.2 | – | 82.4 | – | > 100 | – | 76.5 | – | 66.8 | – | 56.3 | – | 57.6
4 | O=c1ccn(C2CC(O)C(CO)O2)c(=O)[nH]1 (stereo unspecified) | > 5000 | > 5000 | > 5000 | > 5000 | > 5000 | > 5000 | > 5000 | > 5000 | 548 µM and 227 µM | > 5000 | > 5000 | > 5000 | > 5000 | > 5000 | > 5000 | > 5000 | > 5000 | > 5000 | > 5000 | > 5000
5 | CC1OC(n2c3ccccc3c3c4c(c5c6ccccc6[nH]c5c32)C(=O)N(CCN[C@@H]2CCC[C@H]2N)C4=O)CC(O)C1O (stereo partly specified) | 2.48 | 9.17 | 2.31 | 9.06 | 1.63 | 9.73 | 1.63 | 7.14 | 0.747 µM | 4.74 | 3.66 | 11.6 | 1.74 | 7.04 | 2.51 | 9.09 | 1.48 | 6.5 | 0.918 | 5.68
6 | COc1ccc(C2CC(C)(O)Oc3cc4c(cc32)OCO4)cc1 (stereo unspecified) | – | > 100 | – | 69.5 | – | 97.9 | – | > 87.8 | – | 88.6 | – | > 100 | – | > 100 | 43.2 | > 100 | – | > 100 | – | > 100
7 | O=C(N/C(=C/c1ccc(Cl)cc1Cl)c1nc2ccccc2s1)c1ccccc1 | – | 53.8 | – | > 100 | – | 44.3 | – | 37.6 | – | > 100 | – | 32 | – | 26.5 | – | 79.3 | – | 23 | – | 34.4
8 | CC(=O)OC[C@]12CC[C@@H](C(=O)CBr)[C@@H]1[C@H]1CC[C@@H]3[C@@]4(C)CCCNC(C)(C)[C@@H]4CC[C@@]3(C)[C@]1(C)CC2 | 14.5 | 31.9 | 1.6 | 3.7 | 15.9 | > 100 | 2.38 | 6.66 | 2.03 µM | 5.43 | 13.5 | 26.6 | 14.6 | 28.2 | 12.6 | 26.1 | 2.28 | 5.25 | 15.4 | 32.8
9 | COc1cc2c3c(n(CCCCN)c(=O)c2cc1OC)-c1cc2c(cc1C3=O)OCO2 | 1.06 | 11.9 | 0.487 | 2.43 | 4.6 | 11.8 | 1.36 | 6.22 | 0.114 µM | 2.95 | 4.97 | 12.3 | 0.274 | 2.81 | 1.23 | 9.41 | 0.0583 | 0.235 | 0.778 | 5.5
10 | COC(=O)[C@@]12OC[C@]34[C@H]([C@@H](O)[C@@H]1O)[C@@]1(C)[C@H](O)C(=O)C=C(C)[C@@H]1C[C@H]3OC(=O)C(OC(C)=O)[C@@H]24 (stereo partly specified) | 0.0381 | 0.294 | 0.0364 | 0.309 | 0.0193 | 0.0523 | 0.0261 | 0.0785 | < 0.0145 µM | 0.0487 | 0.069 | 0.41 | 0.0241 | 0.0847 | 0.0522 | 1.12 | 0.046 | 0.307 | 0.0273 | 0.121
11 | O=C(Nc1cccc(-n2cc(-c3ccncc3)c(-c3ccc(Cl)c(O)c3)n2)c1)c1ccc(N2CCOCC2)c(C(F)(F)F)c1 | 3.08 | > 50 | 0.555 | 3.81 | 1.85 | > 50 | 1.63 | 9.1 | 2.37 µM | 36.7 | > 50 | > 50 | 1.71 | 7.55 | 20 | > 50 | 22 | > 50 | 1.3 | > 50
12 | C=C1/C(=C\C=C2/CCC[C@]3(C)[C@@H]([C@H](C)CCCC(C)(C)O)CC[C@@H]23)C[C@@H](OC(=O)CBr)C[C@@H]1O | 6.26 | 31.5 | 0.138 | 0.445 | 1.79 | 8.12 | 2.71 | 8.74 | 0.371 µM | 2.05 | 1.55 | 19.3 | 6.81 | 20.3 | 14.9 | 29.5 | 4.93 | 11.9 | < 0.0116 | 0.109
13 | COc1cc2oc3cc(=O)cc4oc(-c5ccccc5)cc(c2c2c1CCC(c1ccccc1)O2)c43 (stereo unspecified) | – | > 100 | – | > 100 | – | > 100 | – | 33.4 | – | > 100 | – | > 100 | – | 54.9 | – | > 100 | – | > 100 | – | > 100
14 | c1cc2n(n1)CCN2 | – | 8580 | – | > 10000 | – | > 5490 | – | 5760 | – | 9880 | – | > 10000 | – | 4350 | – | > 7350 | – | 7050 | – | 9460
